Experimental data: patent US10143667B2, “Ceramide-like function imparting agent” (KAO CORPORATION, priority 2013, dated 2018)

Experiments:
[1] = Evaluation of lamellar-formation ability (X-ray diffraction); assay type: physicochemical; set-up: key to Evaluation of X-ray diffraction measurement: wide-angle X-ray measurement: A: diffraction peaks originating from crystals of stearic acid and cholesterol disappeared and only the peaks originating from a lamellar structure were observed near 2θ=22°; B: diffraction peaks originating from crystals of stearic acid and cholesterol remained but peaks originating approximately from a lamellar structure were observed; C: peaks originating from a lamellar structure were observed only partly; D: no peaks originating from a lamellar structure were observed; key to Evaluation of X-ray diffraction measurement: small-angle X-ray measurement: E: diffraction peaks originating from a periodic structure of lamellar structure were observed; F: no diffraction peaks were observed; settings: equimolar mixture of stearic acid, cholesterol and sample, 30 wt % ion-exchange water
Protocol: Evaluation of lamellar-formation ability was conducted according to the method by Mizushima et al. (Lipids, 30(4), 327-332 (1995)).
Each of stearic acid and cholesterol, used as representatives of fatty acids that are horny layer intercellular lipids, as well as a sample to be evaluated was weighed to give an equimolar mixture, and an ion-exchange water was added thereto in an amount of 30 wt % of the weight of the lipids. The mixture was heat-melted and then cooled to give an evaluation sample.
Wide-angle X-ray diffraction apparatus ((PANalytical) X' Pert MRD High Resolution X-ray Diffractometer)
Small-angle X-ray scattering apparatus ((NANO Viewer manufactured by RIGAKU Corporation), Small-angle X-ray scattering)
In the case where the wide-angle X-ray diffraction apparatus was used, sampling for measurement was conducted by finely grinding a sample in an agate mortar and packing the sample in a measurement cell to give a flat surface. In the case of small-angle X-ray scattering apparatus, the sample was packed in a cell made of stainless steel having grid openings of approximately 4 mm in width and 2 mm in depth.
Conditions for wide-angle X-ray diffraction measurement: measurement cell: a cell for exclusive use made of stainless steel, applied voltage: 45 kV, applied current: 40 mA.
measured range: 2θ=3° to 45°, measurement speed: 2θ=1°/min.
Conditions for small-angle X-ray measurement: measurement cell: a sample that was packed in a stainless steel holder having grid openings was measured.
applied voltage: […], applied current: 30 mA, X-ray irradiation period: 30 minutes, measured at a camera length of from 450 to 650 mm using a detector with an imaging plate.
In a wide-angle X-ray diffraction measurement, a symbol A was assigned to a sample wherein diffraction peaks originating from crystals of stearic acid and cholesterol disappeared and only the peaks originating from a lamellar structure were observed near 2θ=22°, a symbol B was assigned to a sample wherein diffraction peaks originating from crystals of stearic acid and cholesterol remained but peaks originating approximately from a lamellar structure were observed, a symbol C was assigned to a sample wherein peaks originating from a lamellar structure were observed only partly, and a symbol D was assigned to a sample wherein no peaks originating from a lamellar structure were observed. In addition, in a small-angle X-ray measurement, a symbol E was assigned to a sample wherein diffraction peaks originating from a periodic structure of lamellar structure were observed, and a symbol F was assigned to a sample wherein no diffraction peaks were observed.

[2] = Measurement on bonded water content (differential scan calorimetric analysis); assay type: physicochemical; settings: equimolar mixture of stearic acid, cholesterol and sample plus ion-exchange water; DSC
Protocol: Measurement on bonded water content was conducted according to the method by Akasaki et al. (Fragrance Journal, extra edition, No. 13, pp. 66-67, 1994).
1) Differential scan calorimetric analyzer: (DSC6100 (SII Seiko Instruments Inc.)).
A sample prepared by adding ion-exchange water to an equimolar mixture of stearic acid and cholesterol, both used as representatives of fatty acids that are a horny layer intercellular lipid, and a sample to be evaluated, was encapsulated in a cell, and the water content thereof was measured. The temperature of the sample was raised from −40° C. at a rate of 1° C./minute to obtain an enthalpy change accompanied by the temperature raise. A bonded water content was determined from the relation between a water content of a lipid mixture (an amount of moisture absorbed) and a change of peak of enthalpy (melting heat), and an enthalpy change was obtained from the point 0.

[3] = Evaluation as to occlusion (TEWL-inhibition), lipid-impregnated filter paper; settings: filter paper immersed in 10% lipid mixture solution; average of three measurements; versus solvent-only filter
Protocol: Evaluation as to occlusion was conducted according to the method by Akasaki et al. (Fragrance Journal, extra edition, No. 13, p. 65, 1994).
Each of stearic acid and cholesterol, used as representatives of fatty acids that are horny layer intercellular lipids, and a sample to be evaluated was weighed into a screw tube, and a mixed liquid of chloroform and methanol (9:1 by volume) was used to give a 10% solution of the lipid mixture (w/v). A filter paper ([…] Co. Ltd., No. 5C, ϕ=21 mm) was immersed in the 10% solution, and then taken out, dried at room temperature, heated at 90° C. for one hour, hydrated by a water sprayer, heat-treated at 60° C. for 12 hours, and then cooled. The filter thus prepared was set in a vial charged with ion-exchange water (20 ml), and the weight of the filter was measured over time to calculate an amount of TEWL. As a control, was measured an amount of TEWL of a filter which had been immersed only in a mixed liquid of chloroform and methanol (9:1 by volume). A control rate of TEWL (%) was calculated according to the following equation: Control rate of TEWL (%)=(1−amount of TEWL of evaluated sample/amount of TEWL of control)×100. 2) Results

Compound: 2-(hexadecyl/octadecyl)-N,N,-bis(2-hydroxyethyl)succinamide [Compound 2]
- Evaluation of X-ray diffraction measurement: small-angle X-ray measurement [1]: E
- Evaluation of X-ray diffraction measurement: wide-angle X-ray measurement [1]: B

Compound: CCCCCCCCCCCCCCCC(=O)NCCO [Comparative Compound 1, N-(2-hydroxyethyl)palmitamide, reference compound]
- Evaluation of X-ray diffraction measurement: small-angle X-ray measurement [1]: F
- Evaluation of X-ray diffraction measurement: wide-angle X-ray measurement [1]: D

Compound: CCCCCCCCCCCCC/C=C/CC(CC(=O)NCCCCCCCCCCCCCCCC)C(=O)NCCCCCCCCCCCCCCCC (centres unmarked) [Comparative Compound 3, (E)-2-(hexadeca-2-en-1-yl)-N,N,-dihexadecylsuccinamide, reference compound]
- Evaluation of X-ray diffraction measurement: small-angle X-ray measurement [1]: F
- Evaluation of X-ray diffraction measurement: wide-angle X-ray measurement [1]: D

Compound: CCCCCCCCCCCCCCCCOCC(O)CN(CCO)C(=O)CCCCCCCCCCCCCCC (centres unmarked) [Sphingolipid E, reference compound]
- Evaluation of X-ray diffraction measurement: small-angle X-ray measurement [1]: E
- Evaluation of X-ray diffraction measurement: wide-angle X-ray measurement [1]: A
- Bonded water content [2]: 7.1 % by mass
- TEWL inhibition rate [3]: 32.8%

Compound: (E)-2-(eicosa/docosa/tetracosa)-2-en-1-yl)-N,N,-bis(2-hydroxyethyl)succinamide [Compound 5]
- Evaluation of X-ray diffraction measurement: small-angle X-ray measurement [1]: E
- Evaluation of X-ray diffraction measurement: wide-angle X-ray measurement [1]: A

Compound: (E)-2-(hexadeca/octadeca)-2-en-1-yl)-N,N,-bis(1-hydroxypropan-2-yl)succinamide [Compound 4]
- Evaluation of X-ray diffraction measurement: small-angle X-ray measurement [1]: E
- Evaluation of X-ray diffraction measurement: wide-angle X-ray measurement [1]: C

Compound: (E)-2-(hexadeca/octadeca)-2-en-1-yl)-N,N,-bis(2-(2-hydroxy-ethoxy)ethyl)succinamide [Comparative Compound 2, reference compound]
- Evaluation of X-ray diffraction measurement: small-angle X-ray measurement [1]: F
- Evaluation of X-ray diffraction measurement: wide-angle X-ray measurement [1]: D
- TEWL inhibition rate [3]: 24.2%

Compound: (E)-2-(hexadeca/octadeca)-2-en-1-yl)-N,N,-bis(2-hydroxyethyl)succinamide [Compound 1]
- Evaluation of X-ray diffraction measurement: small-angle X-ray measurement [1]: E
- Evaluation of X-ray diffraction measurement: wide-angle X-ray measurement [1]: B

Compound: (E)-2-(hexadeca/octadeca)-2-en-1-yl)-N-hexadecyl-N-(2-hydroxyethyl)succinamide [Comparative compound 4]
- TEWL inhibition rate [3]: 27.4%

Compound: (E)-N,N,-bis(1,3-dihydroxy-2-(hydroxymethyl)propan-2-yl)-2-((hexadeca/octadeca)-2-en-1-yl)-succinamide [Compound 7]
- Evaluation of X-ray diffraction measurement: small-angle X-ray measurement [1]: E
- Evaluation of X-ray diffraction measurement: wide-angle X-ray measurement [1]: A

Compound: (E)-N,N,-bis(1,3-dihydroxy-2-methylpropan-2-yl)-2-((hexadeca/octadeca)-2-en-1-yl)-succinamide [Compound 6]
- Evaluation of X-ray diffraction measurement: small-angle X-ray measurement [1]: E
- Evaluation of X-ray diffraction measurement: wide-angle X-ray measurement [1]: B

Compound: (E)-N,N,-bis(3-hydroxypropyl)-2-((hexadeca/octadeca)-2-en-1-yl)-succinamide [Compound 3]
- Evaluation of X-ray diffraction measurement: small-angle X-ray measurement [1]: E
- Evaluation of X-ray diffraction measurement: wide-angle X-ray measurement [1]: C
